For this experiment, the target named is Substance-P receptor (Homo sapiens, UniProt P25103). As to the kind of experiment: Displacement of [3H]SP from human NK1 receptor expressed in CHO cells. On the technique in general: In a radioligand displacement assay an active substance lowers the binding of a labelled ligand.

1 compound from BindingDB's records for doi:10.1016/j.bmcl.2007.06.085 (Merck, 2007) can be followed below.

Substance-P receptor, sequence (P25103 whole entry): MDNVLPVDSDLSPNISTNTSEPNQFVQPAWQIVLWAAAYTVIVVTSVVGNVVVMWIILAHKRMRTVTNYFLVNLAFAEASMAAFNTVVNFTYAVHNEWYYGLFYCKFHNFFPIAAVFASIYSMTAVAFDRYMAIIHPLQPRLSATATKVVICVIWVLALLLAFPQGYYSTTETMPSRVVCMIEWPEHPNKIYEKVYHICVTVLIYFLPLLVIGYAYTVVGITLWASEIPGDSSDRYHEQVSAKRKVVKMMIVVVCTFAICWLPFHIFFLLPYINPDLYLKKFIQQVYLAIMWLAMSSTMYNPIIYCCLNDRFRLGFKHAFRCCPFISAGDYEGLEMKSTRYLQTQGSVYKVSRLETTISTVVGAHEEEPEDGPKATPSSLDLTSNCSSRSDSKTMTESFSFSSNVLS

As a reminder, the IC50 is the concentration at which inhibition is half-maximal. The low end stands for inhibition by little substance, the high end for a need for much substance. In turn, `C[C@@H](O[C@@H]1CN(C2CC(=O)C(=O)C2)C[C@H]1c1ccc(F)cc1)c1cc(C(F)(F)F)cc(C(F)(F)F)c1` [3-((3S,4R)-3-((R)-1-(3,5-bis(trifluoromethyl)phenyl)ethoxy)-4-(4-fluorophenyl)pyrrolidin-1-yl)-5-hydroxycyclopent-2-enone] yielded a half-inhibitory concentration (IC50) of 0.3 nM.
